Tests used:
MRSA 252 (ATCCBAA-1720) = assay: Disk diffusion assay, MRSA 252; format: cell-based, Staphylococcus aureus; conditions: at low doses
Description: (§1) The PVP grafted nanoparticles were employed to non-covalently attach the antibiotic penicillin-G (PenG) and tested for activity against bacteria. Methicillin-resistant Staphylococcus aureus (MRSA)-252, HA-MRSA, CA-MRSA and methicillin-sensitive Staphylococcus aureus (MSSA) were selected as the target bacteria. A control group of free PenG with the same dose was used for the disk diffusion assay of PenG-nanoparticle complex. […] Without wishing to be bound by any particular theory, it is believed that the enhanced inhibition activity was due to the locally high concentrations of antibiotics physically attached to PVP grafted nanoparticles, which overwhelms the bacterial resistance. The small size PVP grafted nanoparticles with controllable surface attached polymer chain lengths offers a significant vehicle to restore antibiotics activities.
(§2) Bacteria Strains: MRSA 252 (ATCCBAA-1720); Staphylococcus aureus ATCC 29213 (community acquired-MRSA); Staphylococcus aureus ATCC BAA 1717 (hospital associated-MRSA); MSSA ATCC BAA 1718. These bacterial strains were grown at 37° C. in tryptic soy broth for 24 hours.
(§3) Preparation of Nanoparticle-PenG Complex: To prepare the nanoparticle-PenG complex, 15 μL of PVP grafted silica nanoparticles solution (26.65 mg/ml) and 1.85 mL DI water were mixed. 200 μL Penicillin G sodium salt aqueous solution (1 mg/mL) was added and incubated at 24° C. […]

[1] = tested on: MRSA-252, HA-MRSA, CA-MRSA and MSSA; assay: Disk diffusion assay, result stated over the tested strains together; format: cell-based, Staphylococcus aureus; conditions: when physically bound to the PVP grafted silica nanoparticles; against MRSA
Description: as §1, §2, §3

`CC1(C)S[C@@H]2[C@H](NC(=O)Cc3ccccc3)C(=O)N2[C@H]1C(=O)[O-].[Na+]` [free penicillin-G, penicillin-G] was tested, and the “inhibition activity (disk diffusion)” value (MRSA 252 (ATCCBAA-1720)) was “completely ineffective” and the “activity of antibiotic over MRSA” value [1] was “significantly increased”.
